Measurements taken from patent US4182770A, “Alcohol deterrent” (priority 1976, dated 1980).
“Also recorded” adds a separate entry of the source. Like-named read-outs stand apart in the source and are kept apart here.

Tests used:
[1] = system: aversion to alcohol in humans; assay: Alcohol withdrawal/aversion treatment in patients (case histories); format: in vivo
Procedure: In a particularly preferred mode of administration, tablets or dragees containing about 800 mg. of I are used. As an example of its use, after at least 12 hours of alcohol abstention, a half tablet (400 mg.) can be given in the morning before eating, and another half on the next day.
22 Men and 5 women were treated with the new agent I. The youngest patient was 22 and the oldest 68. The average age was 44 years. After the first administration (400 mg., twice), as described above, the dosage consisted of a single oral administration of 800 mg. per week. The highest total dosage amounted to 67 g. of I. With this, the patient could be protected against the influence of alcohol for 84 weeks.
In assessment of success, 5 cases are to be discounted from the total of 27 I treatments. […] Thus, 22 cases remain which can be considered as I treatments. In 12 of these cases, the withdrawal treatment was successful; in three cases questionable; and 7 cases without success. […] After taking 11 g. of I and more (corresponding to an active level period of over 14 weeks), 8 successful cases were counted and two had questionable success. Below 6 g. of I (corresponding to an active level of not more than 8 weeks), there were seven failures; one questionable case and only 2 successful withdrawals.

trypanosomes = settings: known from P 16 20 043 / GB 1,133,408; cited from earlier work
important enzyme systems [2] = assay: Inhibition of important enzyme systems; format: biochemical; settings: compound I
Text: (§1) In contrast, important enzyme systems are inhibited by use of disulfiram.

[3] = system: acetaldehyde content of the blood; assay: Acetaldehyde content of the blood after the consumption of alcohol; format: in vivo
Text: as §1

[4] = Half-life time of the active material; settings: in vivo
[5] = Side effects / tolerability on administration; format: in vivo, humans
Text: It can even appear upon merely smelling the atmosphere of a barroom. […] However, in comparison with the known severe results of a marked abuse of alcohol, these side effects are negligible.

[6] = Critical examinations for possible damages (clinical laboratory and blood pressure determinations); format: in vivo, humans; settings: bilirubin in the blood
Text: In addition to the treatment with I, critical examinations for possible damages were undertaken. […] However, this observation probably only applies indirectly and exclusively to alcohol-toxic liver damages because toxic alcohol which was no longer inhibited, no longer acted upon the liver.

[7] = disulfiram, cited from earlier work
important enzyme systems [8] = settings: disulfiram; cited from earlier work
[9] = below 6 g. of I (active level of not more than 8 weeks)
[10] = after administration of I, humans

SMILES: Cc1nc([N+](=O)[O-])cn1-c1ccc([N+](=O)[O-])cc1 [compound I, 1-(4-nitrophenyl)-2-methyl-4-nitroimidazole]
- successful cases ([1]; 11 g. of I and more (active level period of over 14 weeks)): 8 cases
- correlation of success with period of the withdrawal treatment ([1]; 22 evaluable cases): clearly correlated
- outcome of treatment ([1]; Example 1: champagne cellerman, total dosage 67 g., first treatment from May 1972): the patient behaved normally and worked regularly
- outcome of renewed treatment ([1]; Example 1: treatment begun again after relapse in May 1974, up to January 1975): same good success
- effect of alcohol after discontinuation of treatment ([1]; Example 2: one month after discontinuation (treated November 1973 to February 1974)): throbbing headache caused by alcohol
- outcome of treatment ([1]; Example 2: storekeeper, total dosage 57 g., since April 1974, relatively regular taking of tablets): normal, regular work
- outcome of treatment ([1]; Example 3: total dosage 37 g., after renewed treatment November 1973 to January 1975): no alcohol
- outcome of treatment ([1]; Example 4: immigrant worker, total dosage 25 g., statement of spouse): successful breaking of the habit
- alcohol consumption since the end of the treatment ([1]; Example 4: total dosage 25 g., according to statements of the wife): only had an occassional 1-2 glasses of wine
- outcome of treatment ([1]; Example 5: employee, total dosage 17 g., after treatment September 1974 to February 1975): alcohol-free
- revulsion against alcohol ([1]; after the administration of I, humans): a pronounced revulsion against alcohol is produced; also recorded: causes an aversion to alcohol in humans
- failures [1, 9]: seven
- questionable case [1, 9]: one
- successful withdrawals [1, 9]: 2
- patient protected against the influence of alcohol, duration ([1]; highest total dosage 67 g., 400 mg. twice, then oral 800 mg. per week): 84 weeks
- withdrawal treatment questionable ([1]; of 22 evaluable cases): three
- withdrawal treatment successful ([1]; of 22 evaluable cases): 12 cases
- withdrawal treatment without success ([1]; of 22 evaluable cases): 7 cases
- effectiveness against disease-causing trypanosomes (trypanosomes): effectiveness
- inhibition of important enzyme systems (important enzyme systems [2]): No such inhibition occurs
- acetaldehyde content of the blood [3]: increase
- half-life [4]: > 40 h
- compatibility ([5]; Example 1: after first 400 mg.): Good compatibility
- severity of side effects [5, 10]: generally minor
- side effects which occasionally appear [5, 10]: tachycardia, flush-like skin reddenings, sickly feelings, headache and hangover
- liver function tests ([6]; γ-GT and γ-globulins, probably indirect, alcohol-toxic liver damages only): clear normalizations
- harmful side effects in laboratory examinations ([6]; lymphocytes, GT, GOT, GPT, total protein, β-globulins, γ-globulins, cholesterol, RR systolic): no indications of harmful side effects

SMILES: CCN(CC)C(=S)SSC(=S)N(CC)CC [disulfiram]
- side effects ([7]; orally administered): several undesirable side effects
- contraindication ([7]; inter alia diabetes): contraindicated by, inter alia, diabetes
- inhibition of important enzyme systems (important enzyme systems [8]): inhibited
